Laboratory results published in patent US20230173059A1, “TOLL-LIKE RECEPTOR (TLR) AGONIST NANOPARTICLES AND USES THEREOF” (The Board of Trustees of the Leland Stanford Junior …, priority 2020, published 2023).
Several values for one entry are separate records, joined by “and”; a condition that tells them apart may be missing. Equal values may be shown once.

Experiments:
SARS-CoV-2 spike protein = details: in vivo, sc
TLR9 = molecular target: T1, TLR9 (Mus musculus, UniProt Q9EQU3); assay: In vitro Raw-Blue reporter assay (CpG); type: cell-based; details: 100,000 Raw-Blue cells, 21 h, CpG-C 3.1-29 μg/mL, absorbance 655 nm
T1 construct: host or cells: Raw-Blue (NF-kB-SEAP) mouse macrophage reporter cells
T1 sequence (Q9EQU3 26-1032): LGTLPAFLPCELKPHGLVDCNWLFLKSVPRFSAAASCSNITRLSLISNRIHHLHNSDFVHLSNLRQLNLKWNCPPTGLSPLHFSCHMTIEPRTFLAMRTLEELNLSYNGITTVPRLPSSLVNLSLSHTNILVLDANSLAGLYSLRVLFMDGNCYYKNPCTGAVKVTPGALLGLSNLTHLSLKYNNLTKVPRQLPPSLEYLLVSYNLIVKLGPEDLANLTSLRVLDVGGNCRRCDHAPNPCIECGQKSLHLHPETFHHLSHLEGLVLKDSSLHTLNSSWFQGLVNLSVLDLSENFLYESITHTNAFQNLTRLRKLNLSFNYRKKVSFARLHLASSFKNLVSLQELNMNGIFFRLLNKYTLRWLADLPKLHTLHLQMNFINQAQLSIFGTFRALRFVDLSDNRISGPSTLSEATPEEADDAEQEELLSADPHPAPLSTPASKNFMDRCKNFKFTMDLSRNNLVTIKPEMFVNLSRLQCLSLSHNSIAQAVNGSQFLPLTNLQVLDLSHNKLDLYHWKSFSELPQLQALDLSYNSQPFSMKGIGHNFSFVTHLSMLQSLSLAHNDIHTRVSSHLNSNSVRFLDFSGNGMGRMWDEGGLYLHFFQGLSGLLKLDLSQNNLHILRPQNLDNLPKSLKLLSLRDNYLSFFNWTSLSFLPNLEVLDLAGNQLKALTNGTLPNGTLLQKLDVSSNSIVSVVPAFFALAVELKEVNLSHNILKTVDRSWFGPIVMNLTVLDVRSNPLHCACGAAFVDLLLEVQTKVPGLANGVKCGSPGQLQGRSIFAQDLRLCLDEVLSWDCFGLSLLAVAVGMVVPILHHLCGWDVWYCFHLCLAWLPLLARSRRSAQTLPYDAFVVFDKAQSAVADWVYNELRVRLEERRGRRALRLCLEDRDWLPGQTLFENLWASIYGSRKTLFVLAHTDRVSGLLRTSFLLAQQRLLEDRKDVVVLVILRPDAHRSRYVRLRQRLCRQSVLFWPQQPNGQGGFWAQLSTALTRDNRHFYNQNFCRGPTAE
Description: In vitro Raw-Blue reporter assay. The Raw-Blue (NF-kB-SEAP) reporter cell line (Invivogen, raw-sp) was used to evaluate the valency effect of TLR9 agonist conjugated to PEG-PLA NPs. The cells were cultured at 37° C. with 5% CO2 in DMEM supplemented with L-glutamine (2 mM), D-glucose (4.5 g/L), 10% HI-FBS, and penicillin (100 U/mL)/streptonmcin (100 μg). Every other passage, zeocin (100 μg/mL) was added to the culture medium. Serial dilutions of soluble CpG-B and CpG-C and of the different CpG-B and CpG-C NPs formulations were added to a 96-well tissue culture treated plate to achieve final concentrations between 30 and 3.1 μg/mL of TLR9 agonist. Non-conjugated PEG-PLA NPs were used as a negative control. […] Manufacturer instructions were followed for SEAP quantification, and absorbance levels detected at 655 nm after 3 h incubation with QUANTI-Blue Solution (Invivogen). […]
In these assays, Raw-Blue cells were incubated for 21 h with either the free form, or the NPs tethered form (10%, 20%, 30%, 50%) of CpG-C at a range of CpG concentrations (3.1-29 μg/mL) in order to generate concentration dependent activation curves (FIG. 38B). […] To ensure a correct and consistent dosing of CpG NPs throughout different experiments, we constructed a standard curve for both classes of CpG-NPs (FIGS. 40A, 40B) by measuring the absorbance of different concentration of CpG at 280 nm. […]

[1] = Cargo and polymer diffusivity (FRAP, Stokes-Einstein, MSDM); type: physicochemical; details: for Diffusivity in 1:5 gel / Diffusivity in 2:10 gel: FRAP; for Diffusivity in PBS: calculated with Stokes-Einstein from RH
From the text: To characterize the dynamics of vaccine exposure expected from the vaccine-loaded gels, we assessed the diffusivities of both vaccine cargo in each of the two gel formulations of interest using fluorescence recovery after photobleaching (FRAP) experiments (FIG. 9F. FIG. 16). The PNP gels are unique compared to traditional covalently cross-linked gels as their bonds are dynamic and continuously rearrange^28. This feature results in self-diffusion of the polymer network over time within the intact hydrogel^40,41. OVA's hydrodynamic radius (RH) in PBS is reported in the literature to be 3.2 nm^42, corresponding to a diffusivity value, D, of 76.6 μm^2/s. Using multi-angle light scattering (MALS) we measured Poly(I:C)'s hydrodynamic radius to be much larger, with an RH of 34.2 nm, corresponding to a D value of 7.2 μm^2/s. This difference in hydrodynamic size results in OVA having more than a 10-fold greater diffusivity than Poly(I:C) in PBS (FIG. 9G) and a 100-fold difference in a typical covalently cross-linked hydrogel (FIG. 17). […] The measured diffusivities for all experiments can be found in Table 6.
FRAP Analysis: Alexa Fluor 647 conjugated OVA (Thermo Fisher Scientific), rhodamine conjugated Poly(I:C) (Invivogen), and rhodamine conjugated HPMC-C12 were used to visualize the diffusion of the cargo and gel. Samples were photobleached with a 50 μm diameter for the region of interest (ROI). Different tests (n=5) were made for 3 different samples from the same batch at different locations of the sample. A spot was bleached with a pixel dwell time of 177.32 μs. 500 post-bleach frames were recorded at 1 frame/s to form the recovery exponential curve. The diffusion coefficient was calculated as^52:
Where the constant γD=τ1/2τD, with τ1/2 being the half-time of the recovery. τD the characteristic diffusion time, both yielded by the ZEN software, and ω the radius of the bleached ROI (25 μm).
The diffusivity of cargo in PBS was calculated using the Stokes-Einstein Law Equation for diffusion^53 where kB is Boltzmann's constant, T is temperature in Kelvin, η is solvent viscosity, and R is solute hydrodynamic radius
The diffusivity of cargo in a model covalent PEG gel was calculated using the Multiscale Diffusion Model (MSDM) assuming 25° C., 5% volume fraction, and 35 nm mesh size^54.
FRAP Analysis: Alexa Fluor 647 conjugated OVA (Thermo Fisher Scientific), rhodamine conjugated Poly(I:C) (Invivogen), and rhodamine conjugated HPMC-C12 were used to visualize the diffusion of the cargo and gel. The samples were placed in a sterile 0.18 mm thick glass bottom dish (Ibidi). An Inverted Zeiss LSM 780 Laser Scanning Confocal Microscope (Germany) using a Plan-Apochromat 20×/0.8 M27 objective lens was used for FRAP measurements. To excite the fluorescent Alexa Fluor 647, a 5 mW 633 nm He—Ne laser was employed at 2%, and the emitted fluorescence was detected by Alexa Fluor 647 specific band pass filter (638-756 nm). To excite the fluorescent rhodamine, a 20 mW 561 nm diode pumped solid state laser was used at 2%, and the emitted fluorescence was detected by rhodamine specific band pass filter (415-638 nm). We used pixel dwell time 2.55 μs which took 390.98 ms to finish every scan. Samples were photobleached with a 405 nm diode laser, plus the 633 nm laser in the case of the Alexa Fluor, and a 514 nm argon laser and the 561 nm laser in the case of the rhodamine. All lasers were set al 100% intensity for the bleaching, with a 20-40 μm diameter for the region of interest (ROI). To avoid any extra noise, the high voltage was limited to be 700 V. Different tests (n=5) were made for 3 different samples from the same batch at different locations of the sample. For each test, 10 control pre-bleach images were captured at 1 frame/s. A spot was bleached with a pixel dwell time of 177.32 μs. 500 post-bleach frames were recorded at 1 frame/s to form the recovery exponential curve. The pixel size was set to be 1.66 μm. The diffusion coefficient was calculated as^62: […]

[2] = reported in the literature; cited from earlier work

In the case of CpG-B 1826 [soluble CpG-B], the “anti-spike total IgG endpoint titers” value (SARS-CoV-2 spike protein) is reported as “stronger response than the CpG-B NP”.

With “CpG-C 2395 (DNA TCGTCGTTTTCGGCGCGCGCCG; chemistry not given here) [free CpG-C]” the “log EC50” value (TLR9) was 1.15 log10(μg/mL).

With Poly(I:C) the “Diffusivity in 1:5 gel” value [1] was 1.7 ± 0.3 μm^2/s, the “Diffusivity in 2:10 gel” value [1] was 2.4 ± 0.1 μm^2/s and the “Diffusivity in PBS” value [1] was 7.2 μm^2/s. The “hydrodynamic radius (RH)” value ([1]; multi-angle light scattering (MALS)) was 34.2 nm.

B1: ovalbumin (protein, UniProt P01012 2-386, looked up)
Ovalbumin: GSIGAASMEFCFDVFKELKVHHANENIFYCPIAIMSALAMVYLGAKDSTRTQINKVVRFDKLPGFGDSIEAQCGTSVNVHSSLRDILNQITKPNDVYSFSLASRLYAEERYPILPEYLQCVKELYRGGLEPINFQTAADQARELINSWVESQTNGIIRNVLQPSSVDSQTAMVLVNAIVFKGLWEKAFKDEDTQAMPFRVTEQESKPVQMMYQIGLFRVASMASEKMKILELPFASGTMSMLVLLPDEVSGLEQLESIINFEKLTEWTSSNVMEERKIKVYLPRMKMEEKYNLTSVLMAMGITDVFSSSANLSGISSAESLKISQAVHAAHAEINEAGREVVGSAEAGVDAASVSEEFRADHPFLFCIKHIATNAVLFFGRCVSP
notes: model antigen protein, MW=43 kDa
With B1 the “Diffusivity in 1:5 gel” value [1] was 5.76 μm^2/s and 6 ± 1 μm^2/s, the “Diffusivity in 2:10 gel” value [1] was 3.2 μm^2/s and 3.2 ± 0.6 μm^2/s and the “Diffusivity in PBS” value [1] was 76.6 μm^2/s. The “hydrodynamic radius (RH) in PBS” value [2] was 3.2 nm.
